Data as given in patent US20240174662A1, “SMALL MOLECULE INHIBITORS OF SALT INDUCIBLE KINASES” (Janssen Biotech, Inc., priority 2021, published 2024).

What was measured:
SIK2 [1] = target: T1, SIK2 (Homo sapiens (Human), UniProt Q9H0K1); experiment: SIK2 Enzymatic Assay Version 1 (ADP Glo); type: biochemical; settings: 80 μM ATP and 70 μM HDAC5tide final, ADPGlo luminescence
Procedure: All steps were performed at room temperature. Compounds were pre-plated onto an assay plate using an Echo acoustic dispenser (Labcyte, E550 or E555) at 20 nL per well. Enzyme prepared in Assay Buffer at 0.6 nM (2× final concentration) was added at 2 μL per well using the Multidrop Combi (Thermo Fisher-used for all additions in this assay) to the assay plate, spun for 1 min at 800-850 rpm (Allegra 6KR Beckman Coulter centrifuge), and incubated with compound for 30 minutes. Assay Buffer containing 160 μM ATP and 140 μM HDAC5tide (2× of final concentration for each substrate) was added at 2 μL per well to the assay plate and then spun as above and incubated for 4 hours.
One column of wells was dedicated to a no-peptide negative control (containing only ATP). ADPGlo Reagent (prepared and aliquoted as per manufacturer instructions) was then added at 2 μL per well, spun and incubated for 40 min. ADPGlo Detection (prepared and aliquoted as per manufacturer instructions) was added at 2 μL per well to the assay plate, which was spun and incubated for at least 30 min. The plate was then read on the Pherastar (BMG Labtech) using a luminescence read. Gain was set by the 0.1 mM concentration of ADP wells in the ADP/ATP standard curve plate generated as per manufacturer instructions.

SIK2 [2] = target: T1, SIK2; experiment: SIK2 Enzymatic Assay Version 2 (High ATP); type: biochemical; settings: 3 mM ATP and 200 μM HDAC5tide final, ADP-Glo Max luminescence
Outline: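 Run at room temperature; SIK2 enzyme at 6 nM (2× final) preincubated with compound 30 min before reaction. ADP formation detected by ADP-Glo Max (2 h reagent, 1 h detection) with luminescence read-out.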

T1 sequence (Q9H0K1 whole entry, species assumed): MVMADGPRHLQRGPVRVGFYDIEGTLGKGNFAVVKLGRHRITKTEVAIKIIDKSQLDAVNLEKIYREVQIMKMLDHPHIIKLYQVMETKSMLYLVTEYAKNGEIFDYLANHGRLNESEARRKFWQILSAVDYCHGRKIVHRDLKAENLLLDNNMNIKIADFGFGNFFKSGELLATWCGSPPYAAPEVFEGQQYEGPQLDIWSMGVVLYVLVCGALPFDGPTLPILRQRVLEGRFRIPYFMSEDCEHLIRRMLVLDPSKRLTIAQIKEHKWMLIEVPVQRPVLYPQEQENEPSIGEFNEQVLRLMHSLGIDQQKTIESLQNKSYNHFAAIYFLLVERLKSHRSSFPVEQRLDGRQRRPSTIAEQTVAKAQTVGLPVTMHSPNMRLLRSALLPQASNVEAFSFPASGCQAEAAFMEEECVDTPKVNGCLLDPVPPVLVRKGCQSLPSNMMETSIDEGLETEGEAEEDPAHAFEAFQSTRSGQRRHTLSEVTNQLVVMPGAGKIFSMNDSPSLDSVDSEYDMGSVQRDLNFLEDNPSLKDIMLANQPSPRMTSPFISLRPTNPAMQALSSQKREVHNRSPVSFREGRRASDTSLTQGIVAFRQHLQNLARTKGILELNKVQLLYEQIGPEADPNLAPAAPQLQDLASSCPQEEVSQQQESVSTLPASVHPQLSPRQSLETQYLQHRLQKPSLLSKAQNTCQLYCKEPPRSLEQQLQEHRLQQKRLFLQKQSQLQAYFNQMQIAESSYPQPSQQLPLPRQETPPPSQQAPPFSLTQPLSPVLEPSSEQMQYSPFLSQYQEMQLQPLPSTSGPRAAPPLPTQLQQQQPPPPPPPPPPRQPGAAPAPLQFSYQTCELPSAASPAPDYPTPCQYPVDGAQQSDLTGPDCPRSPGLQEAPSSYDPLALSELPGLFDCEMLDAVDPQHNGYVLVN

| IC50 (SIK2 [1]) [nM] | IC50 (SIK2 [2]) [nM] | SMILES |
| --- | --- | --- |
| 39.7 | – | Cc1oncc1-c1ccn2nc(NC(=O)C3CC3)cc2c1 [Example 486, N-[5-(5-methylisoxazol-4-yl)pyrazolo[1,5-a]pyridin-2-yl]cyclopropanecarboxamide] |
| 12.9 | 334 | CN1CCO[C@H](COc2cnn(C)c2-c2ccn3nc(NC(=O)C4CC4)cc3c2)C1 [Example 487] |
| 6.45 | 424 | CN1CC[C@@H](Oc2cnn(C)c2-c2ccn3nc(NC(=O)C4CC4)cc3c2)C1 [Example 488, N-[5-[2-methyl-4-[(3R)-1-methylpyrrolidin-3-yl]oxy-pyrazol-3-yl]pyrazolo[1,5-a]pyridin-2-yl]cyclopropanecarboxamide] |
